Test results taken from paper PMC4770715, “LIM kinase inhibitors disrupt mitotic microtubule organization and impair tumor cell proliferation” (Oncotarget, 2015).

What was measured:
Assay in all cases: biochemical
Design in all cases: KINOMEscan active-site competition binding, percent of control (100 = no competition)
Conditions in all cases: competition binding, percent control
[1] = biological target: T1, ABL1(T315I)-nonphosphorylated (Homo sapiens, UniProt P00519, T315I)
T1 construct: nonphosphorylated
Description: (§1) Given the potential for the use of LIMK inhibitors as cancer chemotherapeutics, a high-throughput drug discovery and medicinal chemistry program was undertaken. Details of the screening methodology and description of initial hit matter were described in [38]. […] Details of their chemical synthesis are described in Charles et al.. […] These and additional physiochemical parameters are in Supplemental Table 5. […] Kinases inhibited >25% to 50% have yellow circles, 51% to 75% have orange circles, and >76% have red circles. In each case, the size of the circle is proportional to percentage inhibition. LIMK1 and LIMK2 positions are indicated in blue. Illustration reproduced courtesy of Cell Signaling Technology, Inc. (www.cellsignal.com). B. CRT0105950 structure and kinome selectivity mapping as described above. C.

ABL2 = ABL2 (Homo sapiens, UniProt P42684)
Description: as §1

AXL = AXL (Homo sapiens, UniProt P30530)
Sequence of AXL (P30530 whole entry): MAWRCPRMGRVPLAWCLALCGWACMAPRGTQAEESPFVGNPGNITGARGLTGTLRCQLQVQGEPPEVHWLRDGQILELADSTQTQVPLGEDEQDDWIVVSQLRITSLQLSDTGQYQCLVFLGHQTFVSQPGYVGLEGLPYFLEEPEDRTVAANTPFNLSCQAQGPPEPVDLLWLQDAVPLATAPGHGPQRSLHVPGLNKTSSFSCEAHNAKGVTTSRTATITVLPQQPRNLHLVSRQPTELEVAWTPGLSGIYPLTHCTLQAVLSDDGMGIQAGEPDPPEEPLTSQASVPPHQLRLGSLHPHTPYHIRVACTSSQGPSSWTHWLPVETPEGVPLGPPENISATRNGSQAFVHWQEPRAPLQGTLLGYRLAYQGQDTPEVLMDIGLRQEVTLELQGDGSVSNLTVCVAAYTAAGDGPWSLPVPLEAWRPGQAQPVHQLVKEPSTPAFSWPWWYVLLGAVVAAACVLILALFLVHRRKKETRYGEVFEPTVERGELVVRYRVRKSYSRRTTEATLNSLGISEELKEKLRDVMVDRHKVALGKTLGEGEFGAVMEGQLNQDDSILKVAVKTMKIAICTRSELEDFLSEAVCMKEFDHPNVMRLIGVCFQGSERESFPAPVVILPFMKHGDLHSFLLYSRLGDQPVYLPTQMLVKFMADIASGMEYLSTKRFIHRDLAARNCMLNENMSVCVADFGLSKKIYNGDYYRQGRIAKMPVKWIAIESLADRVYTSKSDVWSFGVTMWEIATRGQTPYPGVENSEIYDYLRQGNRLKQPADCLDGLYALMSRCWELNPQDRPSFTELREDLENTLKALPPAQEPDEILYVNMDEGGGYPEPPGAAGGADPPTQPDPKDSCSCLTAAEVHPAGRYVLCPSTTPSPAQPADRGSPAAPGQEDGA
Description: as §1

BMPR1A = BMPR1A (Homo sapiens, UniProt P36894)
Sequence of BMPR1A (P36894 whole entry): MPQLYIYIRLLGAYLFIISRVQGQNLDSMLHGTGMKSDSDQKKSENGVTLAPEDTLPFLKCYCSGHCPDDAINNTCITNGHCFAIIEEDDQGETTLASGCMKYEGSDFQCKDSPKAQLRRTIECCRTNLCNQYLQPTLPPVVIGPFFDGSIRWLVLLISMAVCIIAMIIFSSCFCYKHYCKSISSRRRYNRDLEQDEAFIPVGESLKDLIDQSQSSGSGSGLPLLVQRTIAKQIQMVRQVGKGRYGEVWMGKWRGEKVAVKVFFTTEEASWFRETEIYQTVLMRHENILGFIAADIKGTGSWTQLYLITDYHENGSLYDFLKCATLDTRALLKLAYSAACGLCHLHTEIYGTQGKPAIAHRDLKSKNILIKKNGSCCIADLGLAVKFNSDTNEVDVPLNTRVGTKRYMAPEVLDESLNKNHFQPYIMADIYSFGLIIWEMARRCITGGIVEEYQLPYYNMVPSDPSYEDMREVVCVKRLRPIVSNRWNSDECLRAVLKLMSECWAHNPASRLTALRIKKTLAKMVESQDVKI
Description: as §1

BTK = BTK (Homo sapiens, UniProt Q06187)
Sequence of BTK (Q06187 whole entry): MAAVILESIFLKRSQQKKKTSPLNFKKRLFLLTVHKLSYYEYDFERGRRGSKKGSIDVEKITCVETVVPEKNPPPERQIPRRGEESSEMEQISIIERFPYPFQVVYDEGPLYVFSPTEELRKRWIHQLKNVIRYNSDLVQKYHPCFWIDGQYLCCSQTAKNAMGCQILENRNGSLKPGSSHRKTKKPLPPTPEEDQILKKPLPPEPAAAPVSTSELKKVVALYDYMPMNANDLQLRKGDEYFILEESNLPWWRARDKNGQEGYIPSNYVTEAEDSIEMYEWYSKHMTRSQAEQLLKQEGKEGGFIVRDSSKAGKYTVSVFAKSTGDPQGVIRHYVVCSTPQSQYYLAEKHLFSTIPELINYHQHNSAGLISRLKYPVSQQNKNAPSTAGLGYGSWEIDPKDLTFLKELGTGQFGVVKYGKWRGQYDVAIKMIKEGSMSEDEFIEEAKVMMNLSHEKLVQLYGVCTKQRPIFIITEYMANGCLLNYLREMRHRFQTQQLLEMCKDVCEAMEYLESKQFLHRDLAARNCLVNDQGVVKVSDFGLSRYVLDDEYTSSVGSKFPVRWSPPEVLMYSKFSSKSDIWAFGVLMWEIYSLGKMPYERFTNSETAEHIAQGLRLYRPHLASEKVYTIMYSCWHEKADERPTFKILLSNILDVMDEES
Description: as §1

CAMK1D = CAMK1D (Homo sapiens, UniProt Q8IU85)
Description: as §1

CAMK2B = CAMK2B (Homo sapiens, UniProt Q13554)
Description: as §1

CTK = biological target: T2, CTK (Homo sapiens, UniProt P42679)
T2 construct: gene MATK
Description: as §1

DDR2 = DDR2 (Homo sapiens, UniProt Q16832)
Description: as §1

EGFR(E746-A750del) = EGFR(E746-A750del) (Homo sapiens, UniProt P00533, DEL746-750)
Description: as §1

EPHA7 = EPHA7 (Homo sapiens, UniProt Q15375)
Description: as §1

ERK3 = biological target: T3, ERK3 (Homo sapiens, UniProt Q16659)
T3 construct: gene MAPK6
Description: as §1

ERK4 = biological target: T4, ERK4 (Homo sapiens, UniProt P31152)
T4 construct: gene MAPK4
Description: as §1

FLT3(R834Q) = FLT3(R834Q) (Homo sapiens, UniProt P36888, R834Q)
Description: as §1

KIT(L576P) = KIT(L576P) (Homo sapiens, UniProt P10721, L576P)
Description: as §1

MAP3K3 = MAP3K3 (Homo sapiens, UniProt Q99759)
Description: as §1

PDGFRB = PDGFRB (Homo sapiens, UniProt P09619)
Sequence of PDGFRB (P09619 whole entry): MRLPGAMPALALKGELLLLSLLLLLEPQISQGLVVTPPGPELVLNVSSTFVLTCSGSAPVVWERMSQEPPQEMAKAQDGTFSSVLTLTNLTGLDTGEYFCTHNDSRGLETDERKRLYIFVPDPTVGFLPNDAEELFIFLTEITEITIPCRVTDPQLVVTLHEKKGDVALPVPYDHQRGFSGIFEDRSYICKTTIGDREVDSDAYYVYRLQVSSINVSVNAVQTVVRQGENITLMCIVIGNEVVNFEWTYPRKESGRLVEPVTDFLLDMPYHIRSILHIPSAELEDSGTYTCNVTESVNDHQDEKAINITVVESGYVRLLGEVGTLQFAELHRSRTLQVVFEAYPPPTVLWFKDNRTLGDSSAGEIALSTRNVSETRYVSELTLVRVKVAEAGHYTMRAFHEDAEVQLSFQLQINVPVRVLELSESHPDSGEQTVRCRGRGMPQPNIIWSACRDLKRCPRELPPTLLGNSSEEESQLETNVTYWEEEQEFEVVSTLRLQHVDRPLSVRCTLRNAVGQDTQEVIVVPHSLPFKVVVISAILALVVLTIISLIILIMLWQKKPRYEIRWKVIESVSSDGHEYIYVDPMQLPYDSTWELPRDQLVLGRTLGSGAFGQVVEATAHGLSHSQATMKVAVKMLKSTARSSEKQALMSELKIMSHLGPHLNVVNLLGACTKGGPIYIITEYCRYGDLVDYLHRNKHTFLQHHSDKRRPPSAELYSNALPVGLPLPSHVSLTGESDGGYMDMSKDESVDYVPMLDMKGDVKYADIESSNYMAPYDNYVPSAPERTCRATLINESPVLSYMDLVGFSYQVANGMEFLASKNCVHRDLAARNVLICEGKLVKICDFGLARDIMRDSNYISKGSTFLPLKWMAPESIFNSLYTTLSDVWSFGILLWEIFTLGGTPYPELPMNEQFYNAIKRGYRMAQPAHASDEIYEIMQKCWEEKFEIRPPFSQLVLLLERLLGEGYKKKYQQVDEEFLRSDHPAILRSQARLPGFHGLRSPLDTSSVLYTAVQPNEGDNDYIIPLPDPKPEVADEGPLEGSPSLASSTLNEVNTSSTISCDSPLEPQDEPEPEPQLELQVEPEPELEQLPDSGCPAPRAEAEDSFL
Description: as §1

PIP5K1C = PIP5K1C (Homo sapiens, UniProt O60331)
Description: as §1

[2] = biological target: T5, RSK1(Kin.Dom.1-N-terminal) (Homo sapiens, UniProt Q15418)
T5 construct: gene RPS6KA1; Kin.Dom.1-N-terminal
T5 sequence (Q15418 whole entry): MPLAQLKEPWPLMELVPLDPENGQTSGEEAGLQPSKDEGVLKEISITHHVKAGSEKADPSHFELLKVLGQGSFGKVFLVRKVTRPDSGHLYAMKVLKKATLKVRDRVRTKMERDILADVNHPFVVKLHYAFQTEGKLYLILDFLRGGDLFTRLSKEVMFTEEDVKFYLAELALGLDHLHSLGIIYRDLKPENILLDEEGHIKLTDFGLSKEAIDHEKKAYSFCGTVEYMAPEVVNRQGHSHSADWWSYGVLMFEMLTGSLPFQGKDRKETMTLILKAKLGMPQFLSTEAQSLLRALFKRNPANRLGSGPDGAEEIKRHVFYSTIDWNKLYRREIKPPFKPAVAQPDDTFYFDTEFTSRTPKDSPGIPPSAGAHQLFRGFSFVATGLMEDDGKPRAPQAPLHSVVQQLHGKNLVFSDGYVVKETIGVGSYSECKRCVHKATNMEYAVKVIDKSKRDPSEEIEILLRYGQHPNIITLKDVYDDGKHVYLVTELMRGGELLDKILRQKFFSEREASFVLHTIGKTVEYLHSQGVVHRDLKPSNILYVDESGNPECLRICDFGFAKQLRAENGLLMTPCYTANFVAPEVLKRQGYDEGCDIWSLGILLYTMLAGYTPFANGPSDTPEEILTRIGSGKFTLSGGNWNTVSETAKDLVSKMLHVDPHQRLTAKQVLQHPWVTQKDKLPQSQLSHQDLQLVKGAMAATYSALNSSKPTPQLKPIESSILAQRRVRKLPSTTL
Description: as §1

[3] = biological target: T6, RSK3(Kin.Dom.2-C-terminal) (Homo sapiens, UniProt Q15349)
T6 construct: gene RPS6KA2; Kin.Dom.2-C-terminal
Description: as §1

SGK3 = SGK3 (Homo sapiens, UniProt Q96BR1)
Sequence of SGK3 (Q96BR1 whole entry): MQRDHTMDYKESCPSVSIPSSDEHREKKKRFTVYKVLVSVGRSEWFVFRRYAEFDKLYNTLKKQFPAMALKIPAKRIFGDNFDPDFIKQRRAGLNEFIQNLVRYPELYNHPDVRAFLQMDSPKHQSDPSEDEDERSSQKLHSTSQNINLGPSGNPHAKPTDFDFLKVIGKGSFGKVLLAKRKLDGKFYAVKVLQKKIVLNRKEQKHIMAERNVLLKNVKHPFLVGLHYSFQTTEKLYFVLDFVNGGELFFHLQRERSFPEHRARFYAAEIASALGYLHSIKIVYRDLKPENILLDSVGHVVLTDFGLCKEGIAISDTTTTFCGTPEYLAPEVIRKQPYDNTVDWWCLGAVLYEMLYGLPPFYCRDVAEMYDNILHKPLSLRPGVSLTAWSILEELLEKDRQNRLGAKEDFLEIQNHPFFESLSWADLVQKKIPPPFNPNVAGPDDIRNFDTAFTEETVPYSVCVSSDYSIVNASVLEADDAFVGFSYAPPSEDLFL
Description: as §1

VRK2 = VRK2 (Homo sapiens, UniProt Q86Y07)
Sequence of VRK2 (Q86Y07 whole entry): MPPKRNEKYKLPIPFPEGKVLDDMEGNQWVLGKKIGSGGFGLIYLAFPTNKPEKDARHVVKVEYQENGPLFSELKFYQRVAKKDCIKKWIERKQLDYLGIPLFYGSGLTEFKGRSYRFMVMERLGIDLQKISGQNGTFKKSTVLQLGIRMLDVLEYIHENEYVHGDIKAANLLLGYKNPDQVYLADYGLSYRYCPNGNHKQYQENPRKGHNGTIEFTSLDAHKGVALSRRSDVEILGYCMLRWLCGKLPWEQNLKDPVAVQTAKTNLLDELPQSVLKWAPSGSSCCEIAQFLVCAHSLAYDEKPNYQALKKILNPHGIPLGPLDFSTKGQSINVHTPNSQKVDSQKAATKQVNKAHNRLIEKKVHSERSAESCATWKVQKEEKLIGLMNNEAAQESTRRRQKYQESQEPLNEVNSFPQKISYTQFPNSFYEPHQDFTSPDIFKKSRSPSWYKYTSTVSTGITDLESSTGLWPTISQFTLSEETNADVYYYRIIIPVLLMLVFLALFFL
Description: as §1

Row | Compound | remaining binding at 10 µM [1] [%] | remaining binding at 10 µM (ABL2) [%] | remaining binding at 10 µM (AXL) [%] | remaining binding at 10 µM (BMPR1A) [%] | remaining binding at 10 µM (BTK) [%] | remaining binding at 10 µM (CAMK1D) [%] | remaining binding at 10 µM (CAMK2B) [%] | remaining binding at 10 µM (CTK) [%] | remaining binding at 10 µM (DDR2) [%] | remaining binding at 10 µM (EGFR(E746-A750del)) [%] | remaining binding at 10 µM (EPHA7) [%] | remaining binding at 10 µM (ERK3) [%] | remaining binding at 10 µM (ERK4) [%] | remaining binding at 10 µM (FLT3(R834Q)) [%] | remaining binding at 10 µM (KIT(L576P)) [%] | remaining binding at 10 µM (MAP3K3) [%] | remaining binding at 10 µM (PDGFRB) [%] | remaining binding at 10 µM (PIP5K1C) [%] | remaining binding at 10 µM [2] [%] | remaining binding at 10 µM [3] [%] | also measured
1 | COc1ccc(-c2cnccc2-c2cnc(NC(=O)C(C)C)s2)c(C(F)(F)F)c1 [CRT0105446, N-{5-[3-(4-Methoxy-2-trifluoromethyl-phenyl)-pyridin-4-yl]-hiazol-2-yl}-isobutyramide] | 100 | 100 | 87 | 100 | 85 | 79 | 92 | 100 | 0.4 | 100 | 94 | 100 | 100 | 88 | 36 | 100 | 51 | 60 | 56 | 93 | remaining binding at 10 µM (SGK3): 95%; remaining binding at 10 µM (VRK2): 95%
2 | Cc1ccc(-c2cnccc2-c2cnc(Nc3ccc(O)cc3)s2)c(Cl)c1 [CRT0105950, 4-{5-[3-(2-Chloro-4-methyl-phenyl)-pyridin-4-yl]-thiazol-2-ylamino}-phenol] | 82 | 58 | 43 | 91 | 72 | 63 | 42 | 100 | 12 | 78 | 83 | 97 | 86 | 18 | 0.4 | 20 | 1.6 | 100 | 0.05 | 88 | remaining binding at 10 µM (SGK3): 72%; remaining binding at 10 µM (VRK2): 72%
